Earlier results as cited in patent US20020169561A1, “Modular computational models for predicting the pharmaceutical properties of chemical compunds” (priority 2001, published 2002).
Values joined by “and” are separate entries in the source; they are usually repeats but may differ in a detail not shown here. Identical values can stand only once. Like-named read-outs stand apart in the source and are kept apart here.

What was measured:
[1] = test system: Caco-2 cell monolayer
[2] = in vivo drug absorption, compiled by search of the literature
[3] = molecular target: T1, renin (Homo sapiens, UniProt P00797); parameters: −ΔS: unit not given here; conditions: for −ΔH: enthalpy of binding to renin; for −ΔS: entropy of binding to renin; for −ΔG: free energy of binding to renin; for Kd: renin inhibitors
T1 sequence (P00797 67-406): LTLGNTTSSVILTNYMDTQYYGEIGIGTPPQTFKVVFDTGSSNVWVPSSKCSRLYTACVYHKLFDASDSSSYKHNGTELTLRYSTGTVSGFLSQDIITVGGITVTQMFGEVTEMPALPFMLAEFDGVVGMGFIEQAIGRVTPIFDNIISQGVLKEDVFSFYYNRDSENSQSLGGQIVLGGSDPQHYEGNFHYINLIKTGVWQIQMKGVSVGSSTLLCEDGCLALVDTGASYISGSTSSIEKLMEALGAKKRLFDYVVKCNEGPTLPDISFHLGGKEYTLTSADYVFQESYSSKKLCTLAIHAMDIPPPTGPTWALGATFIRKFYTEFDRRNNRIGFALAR

[4] = Caco-2 permeability coefficient, Table 3
[5] = observed, training set, Table 7

Row | Compound | Permeability × 10^6 (cm/sec) [1, 4] | Obs. Pcaco-2x10^6 [1, 5] | % Absorbed [2] [%] | other results
1 | Nc1nc2c(ncn2COCCO)c(=O)[nH]1 [Acyclovir] | 0.25 × 10^6 (cm/sec) | 0.25 x10^6 | – | –
2 | C=CCc1ccccc1OCC(O)CNC(C)C (stereo not shown) [Alprenolol] | 25.30 × 10^6 (cm/sec) | 25.3 x10^6 | 93 | –
3 | Cc1c(N(C)C)c(=O)n(-c2ccccc2)n1C [Aminopyrine] | 36.5 × 10^6 (cm/sec) | – | – | –
4 | CCC12CCN(CC3(O)CC3)C(Cc3ccc(O)cc31)C2(C)C (stereo not shown) [Bremazocine] | – | 8.02 x10^6 | – | Permeability × 10^6 (cm/sec) ([1]; Caco-2): 8.02 × 10^6 (cm/sec)
5 | CN(C)CCCN1c2ccccc2Sc2ccc(Cl)cc21 [Chlorpromazine] | 19.90 × 10^6 (cm/sec) | 19.9 x10^6 | 90 | –
6 | Clc1cccc(Cl)c1N=C1NCCN1 [Clonidine] | 21.80 × 10^6 (cm/sec) | 21.8 x10^6 | 100 | –
7 | C[C@]12C[C@H](O)[C@H]3[C@@H](CCC4=CC(=O)CC[C@@]43C)[C@@H]1CC[C@@H]2C(=O)CO [Corticosterone] | – | 21.2 x10^6 | 100 | –
8 | CNCCCN1c2ccccc2CCc2ccccc21 [Desipramine] | 24.20 × 10^6 (cm/sec) | 24.2 x10^6 | 95 | –
9 | C[C@@H]1C[C@H]2[C@@H]3CCC4=CC(=O)C=C[C@]4(C)[C@@]3(F)[C@@H](O)C[C@]2(C)[C@@]1(O)C(=O)CO [Dexamethasone] | – | – | 100 | –
10 | CN1C(=O)CN=C(c2ccccc2)c2cc(Cl)ccc21 [Diazepam] | – | – | 100 | –
11 | NCCc1ccc(O)c(O)c1 [Dopamine] | 9.33 × 10^6 (cm/sec) | 9.33 x10^6 | – | –
12 | Nc1nc(O)c2ncn(COC(CO)CO)c2n1 [Ganciclovir] | – | – | 3 | –
13 | COc1ccc2c(c1)c(CC(=O)O)c(C)n2C(=O)c1ccc(Cl)cc1 [Indomethacin] | 20.40 × 10^6 (cm/sec) | 20.4 x10^6 | – | –
14 | CC(CCc1ccccc1)NCC(O)c1ccc(O)c(C(N)=O)c1 (stereo not shown) [Labetalol] | – | – | 90 | –
15 | OC[C@@H](O)[C@@H](O)[C@H](O)[C@H](O)CO [Mannitol] | 0.38 × 10^6 (cm/sec) | – | 16 | –
16 | COCCc1ccc(OCC(O)CNC(C)C)cc1 (stereo not shown) [Metoprolol] | 23.70 × 10^6 (cm/sec) | 23.7 x10^6 | – | –
17 | CC(C)(C)NCC(O)COc1cccc2c1CC(O)C(O)C2 (stereo not shown) [Nadolol] | 3.88 × 10^6 (cm/sec) | 3.88 x10^6 | – | –
18 | CN1CCCC1c1cccnc1 (stereo not shown) [Nicotine] | – | – | 100 | Obs. Pcaco-2x10^6 ([1]; Caco-2): 19.4 x10^6; Permeability × 10^6 (cm/sec) ([1]; Caco-2): 19.40 × 10^6 (cm/sec)
19 | c1ccc(C2(N3CCCCC3)CCCCC2)cc1 [Phencyclidine] | – | – | – | Obs. Pcaco-2x10^6 ([1]; Caco-2): 24.7 x10^6; Permeability × 10^6 (cm/sec) ([1]; Caco-2): 24.70 × 10^6 (cm/sec)
20 | O=C1NC(=O)C(c2ccccc2)(c2ccccc2)N1 [Phenytoin] | 26.70 × 10^6 (cm/sec) | 26.7 x10^6 | 90 | –
21 | CC(C)NCC(O)COc1cccc2[nH]ccc12 (stereo not shown) [Pindolol] | 16.70 × 10^6 (cm/sec) | 16.7 x10^6 | 95 | –

Row | Compound | Permeability × 10^6 (cm/sec) [1, 4] | Obs. Pcaco-2x10^6 [1, 5] | % Absorbed [2] [%] | other results
22 | CC(=O)[C@H]1CC[C@H]2[C@@H]3CCC4=CC(=O)CC[C@]4(C)[C@H]3CC[C@]12C [Progesterone] | 23.70 × 10^6 (cm/sec) | 23.7 x10^6 | – | –
23 | CC(C)NCC(O)COc1cccc2ccccc12 (stereo not shown) [Propranolol] | 21.80 × 10^6 (cm/sec) | – | – | –
24 | O=C(O)c1ccccc1O [Salicylic acid] | 22.00 × 10^6 (cm/sec) | 22 x10^6 | – | –
25 | O=C(O)c1cc(/N=N/c2ccc(S(=O)(=O)Nc3ccccn3)cc2)ccc1O [Sulfasalazine] | 0.30 × 10^6 (cm/sec) | 0.3 x10^6 | – | –
26 | CC(C)(C)NCC(O)c1cc(O)cc(O)c1 (stereo not shown) [Terbutaline] | 0.47 × 10^6 (cm/sec) | 0.47 x10^6 | 73 | –
27 | C[C@]12CC[C@H]3[C@@H](CCC4=CC(=O)CC[C@@]43C)[C@@H]1CC[C@@H]2O [Testosterone] | – | – | 100 | Obs. Pcaco-2x10^6 ([1]; Caco-2): 24.9 x10^6
28 | CC(C)(C)NC[C@H](O)COc1nsnc1N1CCOCC1 [Timolol] | 12.80 × 10^6 (cm/sec) | 12.8 x10^6 | 72 | –
29 | NC(N)=O [Urea] | 4.56 × 10^6 (cm/sec) | – | – | –
30 | CC(=O)CC(c1ccccc1)c1c(O)c2ccccc2oc1=O (stereo not shown) [Warfarin] | 21.10 × 10^6 (cm/sec) | – | – | –
31 | Cc1cn([C@H]2C[C@H](N=[N+]=[N-])[C@@H](CO)O2)c(=O)[nH]c1=O [Zidovudine] | 6.93 × 10^6 (cm/sec) | – | 100 | –
32 | Ac-D-pro-phe-his-leu-Y[CH(OH)CH2]val-ile-NH2 [Compound U77647E] | – | – | – | −ΔH [3]: 20.33 kcal/mol; −ΔS [3]: 105.5; −ΔG [3]: 12.4 kcal/mol; Kd [3]: 1.3 nM
33 | Ac-his-pro-phe-his-sta-ile-NH2 [Compound U72409E] | – | – | – | −ΔH [3]: 22.63 kcal/mol; −ΔS [3]: 108.0; −ΔG [3]: 10.8 kcal/mol; Kd [3]: 23 nM
34 | Ac-phe-his-leu-y[CH(OH)CH2]val-ile-NH2 [Compound U80631E] | – | – | – | −ΔH [3]: 14.28 kcal/mol; −ΔS [3]: 75.7; −ΔG [3]: 9.2 kcal/mol; Kd [3]: 370 nM
35 | Ac-phe-his-phe-Y[CH2NH]phe-NH2 [Compound U73777E] | – | – | – | −ΔH [3]: 14.20 kcal/mol; −ΔS [3]: 76.3; −ΔG [3]: 9.4 kcal/mol; Kd [3]: 220 nM
36 | Ac-phe-his-sta-ile-NH2 [Compound U72407E] | – | – | – | −ΔH [3]: 26.10 kcal/mol; −ΔS [3]: 114.8; −ΔG [3]: 9.5 kcal/mol; Kd [3]: 203 nM and 204 nM
37 | Ac-pro-phe-his-leu-Y[CH(OH)CH2]val-ile-NH2 [Compound U77646E] | – | – | – | −ΔH [3]: 28.75 kcal/mol; −ΔS [3]: 131.1; −ΔG [3]: 11.5 kcal/mol; Kd [3]: 5.4 nM
38 | Ac-pro-phe-his-phe-Y[CH2NH]phe-Mba [Compound U77451E] | – | – | – | −ΔH [3]: 26.70 kcal/mol; −ΔS [3]: 125.3; −ΔG [3]: 12.2 kcal/mol; Kd [3]: 2.5 nM
39 | Ac-pro-phe-his-phe-Y[CH2NH]phe-NH2 [Compound U71909E] | – | – | – | −ΔH [3]: 13.70 kcal/mol; −ΔS [3]: 78.4; −ΔG [3]: 10.6 kcal/mol; Kd [3]: 29 nM
40 | Ac-pro-phe-his-sta-ile-NH2 [Compound U72408E] | – | – | – | −ΔH [3]: 14.69 kcal/mol; −ΔS [3]: 79.6; −ΔG [3]: 9.9 kcal/mol; Kd [3]: 98 nM
41 | Iva-his-pro-phe-his-sta-ile-phe-NH2 [Compound U77455E] | – | – | – | −ΔH [3]: 21.36 kcal/mol; −ΔS [3]: 108.9; −ΔG [3]: 12.4 kcal/mol; Kd [3]: 1.7 nM
